Measurements from ChEMBL document CHEMBL1201862, “PubChem BioAssay data set” (2004).
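Protocol summary: plate cells (96-well), add compound at 5 concentrations, incubate 48 h, interpolate endpoints linearly. The concentration for 50% growth inhibition is given as GI50.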 The source made the active and inactive calls. Cut-off read from the data, not from the text of the source: active = GI50 up to about 1.1 µM and inactive = higher.

Assays:
Assay in all cases: NCI anticancer screen, dose series, 48 h
XF498 = system: XF498
LXFL 529 = system: LXFL 529
M19-MEL = system: M19-MEL
KM-20L2 = system: KM-20L2
DMS-273 = system: DMS-273
RXF 631 = system: RXF 631
T47D = system: T47D
BT-549 = system: BT-549
MDA-N = system: MDA-N

Measured: GI50

Nc1nc(SCCC/C=C/B(O)O)nc2c1ncn2C1OC(CO)C(O)C1O (stereo not drawn)
inactive: XF498 > 243 µM | LXFL 529 > 243 µM | M19-MEL > 243 µM | KM-20L2 > 243 µM | DMS-273 > 243 µM

CN(C)CC1(C)CC/C(=C\c2ccc(Cl)cc2)C1=O (stereo not drawn)
inactive: XF498 78.9 µM | LXFL 529 21.1 µM | M19-MEL 50.8 µM | KM-20L2 21.3 µM | DMS-273 20.7 µM

C/C(=N\Nc1ccccc1)C(CN(C)C)C(c1ccccc1)c1c(O)c2ccccc2oc1=O (stereo not drawn)
inactive: RXF 631 > 100 µM | LXFL 529 > 100 µM | T47D 89.3 µM | M19-MEL > 100 µM | KM-20L2 > 100 µM | BT-549 > 100 µM | MDA-N > 100 µM

Cc1nc(-c2cccnc2)sc1C(=O)/C=C/c1cccc([N+](=O)[O-])c1
inactive: RXF 631 > 100 µM | M19-MEL > 100 µM | KM-20L2 > 100 µM | DMS-273 > 100 µM

CC(=O)NC1=C(NC(C)(C)C)C(=O)c2ccccc2C1=O
inactive: XF498 11.1 µM | LXFL 529 15.2 µM | M19-MEL 15.4 µM | KM-20L2 18.7 µM | DMS-273 26.1 µM

C=CCCC(OCOCCOC)c1cc(C)c(O[Si](C)(C)C(C)(C)C)c(C)c1 (stereo not drawn)
inactive: RXF 631 15.4 µM | LXFL 529 22.8 µM | M19-MEL 17.9 µM | KM-20L2 13.2 µM

COc1ccc2[nH]c3c4c(ccc3c2c1)C(=O)C=CC4=O
inactive: LXFL 529 5.02 µM | T47D 2.64 µM | M19-MEL 14.3 µM | KM-20L2 18.9 µM | DMS-273 16.2 µM | BT-549 27.8 µM | MDA-N 16.2 µM

O=c1[nH]cnc2[nH]nnc12
inactive: XF498 7.5 µM | LXFL 529 84.7 µM | M19-MEL 4.02 µM | KM-20L2 3.87 µM | DMS-273 6 µM

CN(C)Cc1cc(/C(=C(\C#N)c2ccccc2)c2ccc(O)cc2)ccc1O
inactive: RXF 631 17.8 µM | LXFL 529 18.2 µM | M19-MEL 16.9 µM | KM-20L2 20.4 µM | DMS-273 17.4 µM

COc1cc2ccc1-c1cc(ccc1O)CC1c3cc4c(cc3CCN1C)Oc1c(OC)cc3c(c1O4)C(C2)N(C)CC3 (stereo not drawn)
inactive: XF498 1.92 µM | LXFL 529 1.84 µM | M19-MEL 1.88 µM | KM-20L2 1.46 µM | DMS-273 1.78 µM

O=S1(=O)OCCOS(=O)(=O)C1Cl
inactive: LXFL 529 > 100 µM | M19-MEL > 100 µM | DMS-273 > 100 µM

O=C(Nc1ccc(Cl)cc1Cl)c1c/c(=N\O)c2ccc(O)cc2o1
inactive: RXF 631 > 100 µM | LXFL 529 > 100 µM | M19-MEL > 100 µM | KM-20L2 > 100 µM

CCCC/C(C)=N/NC(N)=S
inactive: LXFL 529 > 100 µM | M19-MEL > 100 µM | KM-20L2 > 100 µM

C=C1C(=O)O[C@H]2C1[C@H](OC(=O)/C(C)=C\COC(C)=O)C[C@]1(CO1)[C@@H]1[C@H](O)[C@H]3O[C@@]3(C)[C@@H]12 (stereo partly drawn)
inactive: XF498 19.3 µM | M19-MEL 15.7 µM | KM-20L2 30.5 µM | DMS-273 26.3 µM

COC(=O)C(C#N)C1NC(=O)c2ccccc21 (stereo not drawn)
inactive: RXF 631 > 100 µM | M19-MEL > 100 µM | KM-20L2 > 100 µM | DMS-273 > 100 µM

C=C1C(=O)OC2/C=C(\C)CC(O)/C=C(/CO)CC(OC(=O)/C(C)=C/C)C12 (stereo not drawn)
inactive: XF498 12.2 µM | M19-MEL 23 µM | KM-20L2 71.1 µM | DMS-273 24 µM

COC(=O)/C(=N/NC(C)(C)C)C(C(=O)OC)C(=O)C(=O)Nc1nc2ccc([N+](=O)[O-])cc2s1 (stereo not drawn)
inactive: XF498 > 100 µM | LXFL 529 > 100 µM | M19-MEL > 100 µM | KM-20L2 > 100 µM

Nc1n[n+](-c2ccccc2)no1
inactive: LXFL 529 5.26 µM | M19-MEL 46.2 µM | KM-20L2 10.8 µM | DMS-273 33.2 µM

NC1=NS(=O)(=O)Nc2nc(-c3ccc([N+](=O)[O-])o3)[nH]c21
inactive: LXFL 529 12.7 µM | M19-MEL 16.6 µM | KM-20L2 23.1 µM | DMS-273 21.4 µM

C1=CC=C2NCCSCC/N=C3/C=CC=CC=C3NCCSCC/N=C\2C=C1
inactive: LXFL 529 > 100 µM | M19-MEL > 100 µM | KM-20L2 > 100 µM | DMS-273 > 100 µM

Cn1nc2ccc3nccc(NCCNCCCl)c3c2n1
inactive: XF498 > 100 µM | LXFL 529 > 100 µM | M19-MEL > 100 µM | KM-20L2 > 100 µM | DMS-273 > 100 µM

c1ccc2cc(-c3cc(-c4cc(-c5ccc6ccccc6c5)on4)no3)ccc2c1
inactive: T47D > 100 µM | BT-549 > 100 µM | MDA-N > 100 µM

Cc1nccn1S(=O)(=O)c1ccc(Cl)cc1
inactive: T47D 38 µM | BT-549 74.5 µM | MDA-N 22.2 µM

C1=Cc2cccc3occ(c23)C=C1
inactive: T47D 68.7 µM | BT-549 39.9 µM | MDA-N > 100 µM

COc1cc([N+](=O)[O-])c(S(=O)(=O)O)cc1N
inactive: T47D > 100 µM | BT-549 > 100 µM | MDA-N > 100 µM

COc1cc(OC)c([C@@H]2OC(=O)C3C2C(=O)O[C@H]3c2cc(OC)c(OC)cc2OC)cc1OC (stereo partly drawn)
inactive: XF498 > 100 µM | LXFL 529 > 100 µM | M19-MEL 70.1 µM | KM-20L2 > 100 µM | DMS-273 > 100 µM

CCOC(=O)[C@@]12CCC(C1=O)[C@](C)(O)C[C@@H]2c1ccccc1
inactive: T47D 39 µM | BT-549 58.5 µM | MDA-N 3.86 µM

COc1cc2cc(C(=O)N3CC(CCl)c4c3cc(NC(=O)OCc3ccc([N+](=O)[O-])cc3)c3ccccc43)[nH]c2c(OC)c1OC (stereo not drawn)
inactive: T47D 24.3 µM | BT-549 97.3 µM | MDA-N > 100 µM
